Assays:
Assay type in all cases: biochemical
[1] = target: T1, Human Calpain 9/NS1 (Homo sapiens, UniProt O14815); assay: Calpain continuous fluorescence (FRET) inhibition assay; conditions: Column C; SensoLyte 520 FRET substrate, pH 7.5, 25C
T1 sequence (O14815 1-690): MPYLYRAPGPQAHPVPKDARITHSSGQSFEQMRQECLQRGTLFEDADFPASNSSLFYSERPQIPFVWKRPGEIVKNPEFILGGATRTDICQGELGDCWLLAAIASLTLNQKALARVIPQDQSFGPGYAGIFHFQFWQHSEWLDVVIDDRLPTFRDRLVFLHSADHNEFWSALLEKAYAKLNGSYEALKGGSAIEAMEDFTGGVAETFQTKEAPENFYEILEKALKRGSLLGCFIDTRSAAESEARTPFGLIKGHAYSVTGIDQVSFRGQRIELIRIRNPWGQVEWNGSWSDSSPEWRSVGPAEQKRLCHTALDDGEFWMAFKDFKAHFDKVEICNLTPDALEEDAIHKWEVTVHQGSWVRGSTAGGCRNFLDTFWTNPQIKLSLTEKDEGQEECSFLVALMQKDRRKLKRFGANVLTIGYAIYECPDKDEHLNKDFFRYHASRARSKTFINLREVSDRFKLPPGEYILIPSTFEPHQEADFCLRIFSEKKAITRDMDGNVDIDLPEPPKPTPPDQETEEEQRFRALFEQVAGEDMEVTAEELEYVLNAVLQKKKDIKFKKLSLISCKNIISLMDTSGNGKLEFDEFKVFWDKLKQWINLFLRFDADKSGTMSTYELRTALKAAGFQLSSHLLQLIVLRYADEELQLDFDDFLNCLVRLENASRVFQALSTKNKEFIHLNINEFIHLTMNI
T1 sequence (P04632 1-268 partner): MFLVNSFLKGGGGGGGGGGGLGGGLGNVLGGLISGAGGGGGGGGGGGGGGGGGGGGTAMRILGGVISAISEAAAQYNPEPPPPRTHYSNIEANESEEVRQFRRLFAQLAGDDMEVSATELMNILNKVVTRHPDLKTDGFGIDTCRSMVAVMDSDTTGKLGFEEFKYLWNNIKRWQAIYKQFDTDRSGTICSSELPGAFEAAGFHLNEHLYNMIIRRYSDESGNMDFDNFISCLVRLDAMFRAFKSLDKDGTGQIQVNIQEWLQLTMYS
Experimental: (§1) Calpain 1, 2, and 9 activity and inhibition thereof was assessed by means of a continuous fluorescence assay. The SensoLyte 520 Calpain substrate (Anaspec Inc.) was optimized for detecting calpain activity. This substrate contains an internally quenched 5-FAM/QXLTM 520 FRET pair. Calpains 1, 2, and 9 cleave the FRET substrate into two separate fragments resulting in an increase of 5-FAM fluorescence that is proportional to calpain activity
(§2) Assays were typically setup in black 384-well plates using automated liquid handling as follows. Calpain assay base buffer typically contains 50 mM Tris, pH 7.5, 100 mM NaCl and 1 mM DTT. Inhibitors were serially diluted in DMSO and used to setup 2× mixtures with calpains in the aforementioned buffer. After incubation at ambient temperature (25C), the reaction was initiated by adding a 2× mix of the fluorescent peptide substrate and CaCl2) (required for in-situ calpain activation) in the same buffer. Reaction progress curve data were typically collected for 10 min using excitation/emission wavelengths of 490 nm/520 nm on SpectraMax i3x or the FLIPR-Tetra plate readers (Molecular Devices Inc.). Reaction rates were calculated from progress curve slopes typically over 1-5 min. Dose response curves (rate vs. log inhibitor concentration) were typically fit to a 4-parameter logistic function to extract IC50 values.

[2] = target: T2, Human Calpain 1/NS1 (Homo sapiens, UniProt P07384); assay: as above; conditions: Column A; SensoLyte 520 FRET substrate, pH 7.5, 25C
T2 sequence (P07384 1-714): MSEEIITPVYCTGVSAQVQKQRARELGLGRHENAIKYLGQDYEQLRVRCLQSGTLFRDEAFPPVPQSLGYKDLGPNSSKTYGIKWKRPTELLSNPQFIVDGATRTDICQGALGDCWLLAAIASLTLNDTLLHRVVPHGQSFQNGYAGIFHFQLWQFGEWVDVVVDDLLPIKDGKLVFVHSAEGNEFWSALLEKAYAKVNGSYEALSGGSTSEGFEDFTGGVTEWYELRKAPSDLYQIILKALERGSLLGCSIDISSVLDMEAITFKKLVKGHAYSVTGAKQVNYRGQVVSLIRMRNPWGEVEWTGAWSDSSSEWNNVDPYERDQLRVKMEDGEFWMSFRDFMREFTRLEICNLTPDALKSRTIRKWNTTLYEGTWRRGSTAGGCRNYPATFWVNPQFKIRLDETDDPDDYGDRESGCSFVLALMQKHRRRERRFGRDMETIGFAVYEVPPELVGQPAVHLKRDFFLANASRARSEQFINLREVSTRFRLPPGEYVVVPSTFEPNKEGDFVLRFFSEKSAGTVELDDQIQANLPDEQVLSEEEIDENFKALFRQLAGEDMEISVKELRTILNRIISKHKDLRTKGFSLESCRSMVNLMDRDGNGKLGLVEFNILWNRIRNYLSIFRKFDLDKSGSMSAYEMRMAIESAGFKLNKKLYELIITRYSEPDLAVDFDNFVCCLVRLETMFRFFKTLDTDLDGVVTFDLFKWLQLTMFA
T2 sequence (P04632 1-268 partner): T1 sequence (P04632 1-268 partner)
Experimental: as §1, §2

[3] = target: T3, Human Calpain 2/NS1 (Homo sapiens, UniProt P17655); assay: as above; conditions: Column B; SensoLyte 520 FRET substrate, pH 7.5, 25C
T3 sequence (P17655 1-700): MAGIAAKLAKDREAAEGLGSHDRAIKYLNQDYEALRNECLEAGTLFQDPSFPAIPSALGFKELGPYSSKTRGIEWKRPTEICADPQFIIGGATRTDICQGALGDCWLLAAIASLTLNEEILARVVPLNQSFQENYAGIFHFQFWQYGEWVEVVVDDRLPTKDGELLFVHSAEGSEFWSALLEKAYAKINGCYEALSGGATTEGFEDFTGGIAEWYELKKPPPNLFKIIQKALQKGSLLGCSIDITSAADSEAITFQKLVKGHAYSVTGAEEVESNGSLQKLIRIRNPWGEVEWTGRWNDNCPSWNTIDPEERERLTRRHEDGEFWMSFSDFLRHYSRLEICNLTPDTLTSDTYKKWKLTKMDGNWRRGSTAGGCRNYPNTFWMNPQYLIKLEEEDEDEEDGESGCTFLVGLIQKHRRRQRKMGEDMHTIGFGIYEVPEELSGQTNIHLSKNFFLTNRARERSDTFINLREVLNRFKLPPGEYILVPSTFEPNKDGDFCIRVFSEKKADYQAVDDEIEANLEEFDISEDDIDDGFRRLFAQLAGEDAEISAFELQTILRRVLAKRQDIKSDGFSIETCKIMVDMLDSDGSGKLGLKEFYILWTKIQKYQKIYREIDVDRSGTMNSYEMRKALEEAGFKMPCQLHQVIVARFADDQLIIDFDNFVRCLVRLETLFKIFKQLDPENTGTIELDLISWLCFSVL
T3 sequence (P04632 1-268 partner): T1 sequence (P04632 1-268 partner)
Experimental: as §1, §2

[4] = target: T4, Human Cathepsin S (Homo sapiens, UniProt P25774); assay: Cathepsin continuous fluorescence inhibition assay; conditions: Column F; enzyme 6 nM, substrate 1 uM, pH 4.5, 30 minutes pre-incubation with inhibitor
T4 construct: purchased
T4 sequence (P25774 115-331): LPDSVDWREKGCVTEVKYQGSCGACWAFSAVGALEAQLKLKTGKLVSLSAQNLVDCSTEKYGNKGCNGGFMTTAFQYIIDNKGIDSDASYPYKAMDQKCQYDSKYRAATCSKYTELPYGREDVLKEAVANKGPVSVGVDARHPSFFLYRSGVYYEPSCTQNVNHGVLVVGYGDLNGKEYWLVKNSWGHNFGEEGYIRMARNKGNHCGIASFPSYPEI
Experimental: (§3) Cathepsin activity and inhibition thereof was assessed by means of a continuous fluorescence assay. All assays were run in 384 well format and utilized peptide substrates that liberate fluorescence upon protease catalyzed cleavage. FLIPR plate readers (Molecular Devices Inc.) were used to monitor reactions and extract initial rates which were then fit (four parameter logistic function) to obtain IC50 values. All enzymes are human. All enzymes and reagents were obtained commercially and are summarized in Tables 1 and 2 below along with assay conditions.

[5] = target: T5, Human Cathepsin L (Homo sapiens, UniProt P07711); assay: Cathepsin continuous fluorescence inhibition assay; conditions: Column G; enzyme 0.025 nM, substrate 1 uM, pH 6.0, 30 minutes pre-incubation with inhibitor
T5 construct: purchased
T5 sequence (P07711 114-333): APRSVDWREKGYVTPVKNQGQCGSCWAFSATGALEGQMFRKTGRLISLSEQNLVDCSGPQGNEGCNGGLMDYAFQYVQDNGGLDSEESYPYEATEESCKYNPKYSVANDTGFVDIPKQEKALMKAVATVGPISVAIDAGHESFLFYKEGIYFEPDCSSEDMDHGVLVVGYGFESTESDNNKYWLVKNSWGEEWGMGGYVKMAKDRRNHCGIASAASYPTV
Experimental: as §3

[6] = target: T6, Human Cathepsin B (Homo sapiens, UniProt P07858); assay: Cathepsin continuous fluorescence inhibition assay; conditions: Column D; enzyme 25 nM, substrate 1 uM, pH 5.0, 30 minutes pre-incubation with inhibitor
T6 construct: purchased
Experimental: as §3

[7] = target: T7, Human Cathepsin K (Homo sapiens, UniProt P43235); assay: Cathepsin continuous fluorescence inhibition assay; conditions: Column E; enzyme 10 nM, substrate 1 uM, pH 5.5, 30 minutes pre-incubation with inhibitor
T7 construct: purchased
T7 sequence (P43235 115-329): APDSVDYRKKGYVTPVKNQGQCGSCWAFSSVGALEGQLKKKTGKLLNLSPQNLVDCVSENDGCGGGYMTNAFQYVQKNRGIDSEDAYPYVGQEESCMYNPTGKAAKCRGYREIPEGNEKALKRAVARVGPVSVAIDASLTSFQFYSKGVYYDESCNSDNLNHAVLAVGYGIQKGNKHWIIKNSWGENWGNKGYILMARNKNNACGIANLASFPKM
Experimental: as §3

Row | Compound | IC50 [1] [µM] | IC50 [2] [µM] | IC50 [3] [µM] | IC50 [4] [µM] | IC50 [5] [µM] | IC50 [6] [µM] | IC50 [7] [µM]
1 | CCCCCC/C=C\CC(=O)N[C@@H](Cc1ccc(O)cc1)C(=O)N[C@H](C(=O)N[C@@H]1/C=C/C(=O)N[C@@H](C(C)C)C(=O)N[C@@H](Cc2ccc(O)cc2)C(=O)OC1)C(C)C [Compound 18, (Z)—N—((S)-1-(((S)-1-(((3S,6S,11R,E)-3-(4-hydroxybenzyl)-6-isopropyl-2,5,8-trioxo-1-oxa-4,7-diazacyclododec-9-en-11-yl)amino)-3-methyl-1-oxobutan-2-yl)amino)-3-(4-hydroxyphenyl)-1-oxopropan-2-yl)dec-3-enamide] | > 10 | < 3 | < 3 | < 3 | < 3 | < 3 | < 3
2 | CC(C)[C@@H]1NC(=O)/C=C/[C@@H](NC(=O)[C@H](C)NC(=O)OC(C)(C)C)COC(=O)[C@H](Cc2ccc(O)cc2)NC1=O [Compound 13, tert-butyl ((s)-1-(((3S,6S,11R,E)-3-(4-hydroxybenzyl)-6-isopropyl-2,5,8-trioxo-1-oxa-4,7-diazacyclododec-9-en-11-yl)amino)-1-oxopropan-2-yl)carbamate] | > 10 | > 10 | > 10 | < 3 | < 3 | < 3 | < 3
3 | CC(C)[C@@H]1NC(=O)/C=C/[C@@H](NC(=O)[C@@H](NC(=O)[C@H](Cc2ccc(O)cc2)NC(=O)OC(C)(C)C)C(C)C)COC(=O)[C@H](Cc2ccc(O)cc2)NC1=O [Compound 3, Tert-butyl ((S)-1-(((S)-1-(((3S,6S,11R,E)-3-(4-Hydroxybenzyl)-6-isopropyl-2,5,8-trioxo-1-oxa-4,7-diazacyclododec-9-en-11-yl)amino)-3-methyl-1-oxobutan-2-yl)amino)-3-(4-hydroxyphenyl)-1-oxopropan-2-yl)carbamate] | > 10 | < 3 | < 3 | < 3 | < 3 | < 3 | < 3
4 | CCCCCC/C=C\CC(=O)N[C@@H](Cc1ccc(O)cc1)C(=O)N[C@H](C(=O)N[C@@H]1/C=C/C(=O)N[C@@H](C(C)C)C(=O)N[C@@H](C)C(=O)OC1)C(C)C [Compound 16, (Z)—N—((S)-3-(4-hydroxyphenyl)-1-(((S)-1-(((3S,6S,11R,E)-6-isopropyl-3-methyl-2,5,8-trioxo-1-oxa-4,7-diazacyclododec-9-en-11-yl)amino)-3-methyl-1-oxobutan-2-yl)amino)-1-oxopropan-2-yl)dec-3-enamide] | > 10 | < 3 | < 3 | < 3 | < 3 | < 3 | < 3
5 | CC(C)[C@@H]1NC(=O)/C=C/[C@@H](NC(=O)CNC(=O)[C@H](Cc2ccc(O)cc2)NC(=O)OC(C)(C)C)COC(=O)[C@H](Cc2ccc(O)cc2)NC1=O [Compound 8, tert-butyl ((s)-1-((2-(((3S,6S,11R,E)-3-(4-hydroxybenzyl)-6-isopropyl-2,5,8-trioxo-1-oxa-4,7-diazacyclododec-9-en-11-yl)amino)-2-oxoethyl)amino)-3-(4-hydroxyphenyl)-1-oxopropan-2-yl)carbamate] | > 10 | > 10 | > 10 | < 3 | < 3 | < 3 | < 3
6 | CC(C)[C@@H]1NC(=O)/C=C/[C@@H](NC(=O)[C@@H](NC(=O)OCc2ccccc2)C(C)C)COC(=O)[C@H](Cc2ccc(O)cc2)NC1=O [Compound 9, Benzyl ((s)-1-(((3S,6S,11R,E)-3-(4-hydroxybenzyl)-6-isopropyl-2,5,8-trioxo-1-oxa-4,7-diazacyclododec-9-en-11-yl)amino)-3-methyl-1-oxobutan-2-yl)carbamate] | > 10 | 3 to 10 | < 3 | < 3 | < 3 | < 3 | < 3
7 | CC(C)[C@@H]1NC(=O)/C=C/[C@@H](NC(=O)OC(C)(C)C)COC(=O)[C@H](C)NC1=O [Compound 15, tert-butyl ((3S,6S,11R,E)-6-isopropyl-3-methyl-2,5,8-trioxo-1-oxa-4,7-diazacyclododec-9-en-11-yl)carbamate] | > 10 | > 10 | > 10 | < 3 | < 3 | 3 to 10 | < 3

— patent publication US20210253642A1, “CALPAIN MODULATORS AND THERAPEUTIC USES THEREOF BACKGROUND” (Blade Therapeutics, Inc., priority 2018, published 2021)
